The subject of one data set is C. difficile. In words: In vitro antibacterial activity: MIC by broth microdilution. Type of data set: cell-based, Clostridium difficile. Particulars: Clostridioides difficile, anaerobic, tested range 0.008 to 8 μg/ml. The method, then: MICs (minimum inhibitory concentrations) were determined by the broth microdilution technique with 96-well microdilution plates. […] The plates were filled with 100 μl of reinforced clostridial medium (Oxoid; Unipath Ltd., Basingstoke, United Kingdom) per well containing the final antibiotic concentrations. The plates were thawed and preincubated for 3 hours in an anaerobic chamber (Thermal, USA) containing an atmosphere of 80% N2, 15% CO2, and 5% H2. The bacterial inocula were prepared by suspending growth from 48 hours cultures in reinforced clostridial medium. The final inoculum was approximately 1.0×10^5-6 CFU/well. The plates were incubated for 48 hours at 37° C. in the anaerobic chamber. The MIC was defined as the lowest antibiotic concentration that inhibited visible growth. Ciprofloxacin, vancomycin and metronidazole were used as a positive control.
Background: Dilution methods test growth across graded concentrations, often in twofold steps.

The mark [1] stands for this setting: strain C. difficile ATCC43255, 48 hours at 37° C., read-out: MIC against C. difficile ATCC43255.
[2] abbreviates: strain C. difficile ATCC70092, 48 hours at 37° C., read-out: MIC against C. difficile ATCC70092.
[3] abbreviates: strain C. difficile ATCC7000057, 48 hours at 37° C., read-out: MIC against C. difficile ATCC7000057.
[4] abbreviates: strain C. difficile IQCC23903, 48 hours at 37° C., read-out: MIC against C. difficile IQCC23903.

In brackets after ≈: the same amount, converted by molar mass. Like-named read-outs stand apart in the source and are kept apart here.

By MIC is commonly meant the smallest concentration in the dilution series that meets the test's criterion for growth inhibition. The melting point is the temperature of the solid-liquid transition.

For `Cc1c(-c2cnc3[nH]c(=O)ccc3c2)c(F)cc2c(=O)c(C(=O)O)cn(C3CC3)c12` [Compound 1-2], the melting point is more than 300 °C. For the same compound, the MIC in the data set with C. difficile (setting [1]) lay in the range of 0.032 to 0.125 µg/mL (≈ 0.0789 to 0.308 µM). For the same compound, in the data set with C. difficile (setting [2]), the MIC is 0.032 to 0.125 µg/mL (≈ 0.0789 to 0.308 µM). Moreover, in the data set with C. difficile (setting [3]), the MIC lay within 0.032 to 0.125 µg/mL (≈ 0.0789 to 0.308 µM). Also, the MIC in the data set with C. difficile (setting [4]) was in the range of 0.063 to 0.25 µg/mL (≈ 0.155 to 0.617 µM).

Turning to `Cc1c(-c2cnc(N)c(C#N)c2)c(F)cc2c(=O)c(C(=O)O)cn(C3CC3)c12` [Compound 2-18], the MIC lay within 0.016 to 0.063 µg/mL (≈ 0.0423 to 0.167 µM) in the data set on C. difficile (setting [1]), 0.008 to 0.063 µg/mL (≈ 0.0211 to 0.167 µM) with C. difficile (setting [2]), 0.016 to 0.063 µg/mL (≈ 0.0423 to 0.167 µM) in the data set on C. difficile (setting [3]) and 0.032 to 0.063 µg/mL (≈ 0.0846 to 0.167 µM) with C. difficile (setting [4]).

Compound `Cc1c(-c2cc(Cl)c3nccn3c2)c(F)cc2c(=O)c(C(=O)O)cn(C3CC3)c12` [Compound 3-11] registered a melting point of 307 to 311 °C. Further, the MIC with C. difficile (setting [1]) was 0.008 to 0.032 µg/mL (≈ 0.0194 to 0.0777 µM). The MIC in the data set on C. difficile (setting [2]) is 0.008 to 0.032 µg/mL (≈ 0.0194 to 0.0777 µM). Besides, the MIC in the data set with C. difficile (setting [3]) fell in the range of 0.016 to 0.032 µg/mL (≈ 0.0389 to 0.0777 µM). Further, in the data set on C. difficile (setting [4]), the MIC fell in the range of 0.008 to 0.063 µg/mL (≈ 0.0194 to 0.153 µM).

For the origin of these results see US9440951B2, “Quinolone compound” (priority 2011, dated 2016).
